In data set [1] the target is T1, IKKß (Mus musculus, UniProt O88351).
T1 construct: Total cell lysate was prepared for western blotting analysis; endogenous in cells; host or cells: mouse embryonic fibroblasts (MEFs)
T1 sequence (O88351 1-757): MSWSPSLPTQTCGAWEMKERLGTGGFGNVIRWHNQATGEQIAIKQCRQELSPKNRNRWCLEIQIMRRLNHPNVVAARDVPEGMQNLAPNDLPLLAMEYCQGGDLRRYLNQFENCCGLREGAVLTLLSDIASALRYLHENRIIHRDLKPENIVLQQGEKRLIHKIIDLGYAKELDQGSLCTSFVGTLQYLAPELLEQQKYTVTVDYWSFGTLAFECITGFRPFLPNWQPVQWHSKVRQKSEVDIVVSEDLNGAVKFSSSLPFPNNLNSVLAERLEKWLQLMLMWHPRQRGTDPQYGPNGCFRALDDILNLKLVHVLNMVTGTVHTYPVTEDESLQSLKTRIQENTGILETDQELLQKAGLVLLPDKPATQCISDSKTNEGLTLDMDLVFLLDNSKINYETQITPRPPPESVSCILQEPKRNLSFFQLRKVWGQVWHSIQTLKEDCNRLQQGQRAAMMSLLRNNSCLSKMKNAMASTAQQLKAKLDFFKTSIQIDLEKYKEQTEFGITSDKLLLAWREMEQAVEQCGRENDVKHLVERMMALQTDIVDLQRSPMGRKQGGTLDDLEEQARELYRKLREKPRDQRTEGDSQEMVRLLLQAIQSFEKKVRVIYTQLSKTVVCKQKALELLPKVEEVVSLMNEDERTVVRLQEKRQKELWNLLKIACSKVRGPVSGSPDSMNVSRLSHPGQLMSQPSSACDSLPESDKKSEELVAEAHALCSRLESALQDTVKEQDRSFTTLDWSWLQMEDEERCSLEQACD
In words: IKKß phosphorylation by immunoblotting in TNFα-treated MEFs ("in vitro kinase assay"). It counts as cell-based. The note with it: MEFs pre-treated with different doses for 1 hour, then cytotoxic TNFα 15 min; immunoblot, FIG. 17.

Data set [2] deals with BAD. In words: Cytotoxic dose TNFα-induced BAD translocation to mitochondria, cell fractionation and immunoblotting in MEFs. The note with it: MEFs pre-treated with different doses 1 hour, cytotoxic TNFα 4 hours; FIG. 19B. On the technique in general: Immunoblotting shows a protein as a band on a membrane.
Data set [3] has as its system BAD. In words: TNFα-induced BAD mitochondrial translocation in fibroblasts pre-treated with actin stress fiber modulators. It is filed as cell-based, mouse. Conditions: for cytotoxic dose TNFα-induced BAD mitochondrial translocation: pre-treated 1 hour (30 nM Jasplakinolide or 5 μM S1P), then 80 ng/ml TNFα, FIG. 10A, 10C; for BAD mitochondrial translocation with non-cytotoxic dose TNFα: pre-treated 1 hour (1 μg/ml Cytochalasin D or 2.5 μg/ml Latrunculin B), 5 ng/ml TNFα 4 hours, FIG. 10E, 10G. The protocol:
Immunoprecipitation was performed as previously described (12). Caspase 3 assay was performed with Casp-3 cellular activity assay kit using Casp-3 substrate Ac-DEVD-pNA (Calbiochem). Active RhoA, active Src, and active Cdc42 assays were performed with G-LISA assay biochemical kit (Cytoskeleton, Inc.). Active GEF-H1 assay was performed by using GST-RhoA(G17A) to pull down the active GEF-H1 from cell extracts and analyzed by immunoblotting. Cytosol and mitochondria fractionations were prepared by the cytosol/mitochondria fractionation kit (Biovision), according to the manufacturer protocol. Cytoskeleton precipitation and G-actin/F-actin assay were performed by the G-actin/F-actin in vivo assay biochem kit (Cytoskeleton, Inc.)
(§1) WT and Bad-deficient fibroblasts were pre-treated with 30 nM Jasplakinolide (FIG. 10A and FIG. 10B), 5 μM Sphingosine-1-phosphate (S1P) (FIG. 10C and FIG. 10D) or DMSO (control) for 1 hour, followed by stimulation with or without 80 ng/ml TNFα for various times, as indicated. Cell extracts were separated into cytosol and mitochondrial fractions. Subcellular localizations of BAD and IKK-phosphorylated BAD were determined. ß-actin, BCL-xL, and COX-2 were used as control (FIG. 10A and FIG. 10C). Apoptotic cells were identified by Annexin V and PI staining, followed by flow cytometric analysis. Data are as means±s.d. **, P<0.01, as analyzed by two-tailed Student's t test (FIG. 10B and FIG. 10D).
(§2) WT and Bad-deficient fibroblasts were pretreated with 1 μg/ml Cytochalasin D (FIG. 10E and FIG. 10F), 2.5 μg/ml Latrunculin B (FIG. 10G and FIG. 10H), or DMSO (control) for 1 hours, followed by stimulation with or without 5 ng/ml or 80 ng/ml TNFα for 4 hours (FIG. 10E and FIG. 10G) or 12 hours (FIG. 10F and FIG. 10H). Cell extracts were separated into cytosol and mitochondrial fractions. Subcellular localizations of BAD and IKK phosphorylated BAD were determined. ß-actin, BCL-xL, and COX-2 were used as control (FIG. 10E and FIG. 10G). Apoptotic cells were identified by Annexin V and PI staining, followed by flow cytometric analysis. Data are means±s.d. and represent three individual experiments. **, P<0.01, as analyzed by two-tailed Student's t test (FIG. 10B, FIG. 10D, FIG. 10F, and FIG. 10H).

Data set [4] concerns WT fibroblasts. Nature of the data set: TNFα-induced apoptosis in fibroblasts pre-treated with actin stress fiber modulators, Annexin V/PI flow cytometry. It counts as cell-based, mouse. Conditions: for cytotoxic dose TNFα-induced apoptosis: pre-treated 1 hour (30 nM Jasplakinolide or 5 μM S1P), then 80 ng/ml TNFα, FIG. 10B, 10D; for apoptosis with non-cytotoxic dose TNFα: pre-treated 1 hour (1 μg/ml Cytochalasin D or 2.5 μg/ml Latrunculin B), 5 ng/ml TNFα 12 hours, FIG. 10F, 10H. The protocol: Annexin V and propidium iodide (PI) staining was performed with FITC Annexin V apoptosis Detection kit (BD Pharmingen). Apoptotic cells were analyzed by FACS canto flow cytometer (BD Biosciences).
as §1, §2
For orientation: Flow cytometry measures light scatter and fluorescence of single cells or particles in a stream.

Data set [5] has as its system wild type mice subjected to CLP surgery. Nature of the data set: Polymicrobial infection model (cecal ligation and puncture, CLP), mortality rate. It counts as in vivo, mouse. The note with it: 2.5 mg/kg i.p. 6 hours before CLP and each 12 hours after surgery; n=10, p<0.01; FIG. 20B. As for the experimental part:
Wild type C57B6/J6 mice were maintained in a specific pathogen-free facility and housed on a 12:12-hour light/dark photoperiod at an ambient temperature of 22° C.±2° C. All animal experiments were conducted in accordance with the protocols approved by the Institutional Animal Care and Use Committee of the University of Chicago. 6-8 week old male mice were used for all of the experiments. The bacterial infusion model was performed by intraperitoneal (i.p.) injection of E. coli (ATCC 25922; 3×10^7 CFU). For the polymicrobial infection model, the CLP procedure was performed. The severity of CLP was adjusted to a high-grade sepsis. For the mock CLP procedure (Sham), mice underwent the same abdominal surgery as CLP procedure, except were not subject to the cecal ligation and puncture. Inhibitor treatments were performed using i.p. injection of the compound at a dose of 2.5 mg/kg body weight. Same amount of DMSO were i.p. injected as a control. […] Mortality rates were recorded for up to 120 hours for the CLP model and 50-60 hours for the E. coli model after the treatment and dying mice were pre-moved. […]
In these experiments, wild type mice were i.p injected with or without saracatinib (2.5 mg/kg body weight) for 6 hours, then challenged with E. coli (5×10^7CFU, i.p. injection). […] Mortality rate was determined (FIG. 20A); n=6, p<0.01. […] Mortality rate was determined (FIG. 20B); n=10, p<0.01.

The source of these data is patent publication US10751324B2, “Treatment of TNF- alpha cytotoxicity” (The University of Chicago, priority 2016, dated 2020).

For `Cc1nc(Nc2ncc(C(=O)Nc3c(C)cccc3Cl)s2)cc(N2CCN(CCO)CC2)n1.O` [dasatinib, N-(2-chloro-6-methylphenyl)-2-[[6-[4-(2-hydroxyethyl)-1-piperazinyl]-2-methyl-4-pyrimidinyl]amino]-5-thiazole carboxamide monohydrate], the IKK phosphorylation result in data set [1] was “do not inhibit”. Further, the “cytotoxic dose TNFα-induced BAD translocation to mitochondria” value in data set [2] is reported as “inhibit”. For the molecule `C/C1=C\[C@H](C)C[C@H](C)OC(=O)C[C@H](c2ccc(O)cc2)NC(=O)[C@@H](Cc2c(Br)[nH]c3ccccc23)N(C)C(=O)[C@H](C)NC(=O)[C@@H](C)C1` [Jasplakinolide], in data set [3], the “cytotoxic dose TNFα-induced BAD mitochondrial translocation” value is on record as “significantly reduced”. Moreover, in data set [4], the “cytotoxic dose TNFα-induced apoptosis” value is on record as “significantly reduced”.

Take `C/C1=C/C(=O)O[C@@H]2C[C@@H](CC[C@H](C)/C=C\CC1)O[C@@](O)([C@@H]1CSC(=O)N1)C2` [latrunculin B, Latrunculin B]: the “BAD mitochondrial translocation with non-cytotoxic dose TNFα” value in data set [3] is recorded as “induced”. Also, the “apoptosis with non-cytotoxic dose TNFα” value in data set [4] is recorded as “induced”. Regarding `[2H]C([2H])([2H])N1CCN(CCOc2cc(OC3CCOCC3)c3c(Nc4c(Cl)ccc5c4OCO5)ncnc3c2)CC1` [ZG5129], in data set [5], the “polymicrobial infection-induced severe sepsis (mortality rate)” value is “inhibit”.

For the molecule `CCCCCCCCCCCCC/C=C/[C@@H](O)[C@@H](N)COP(=O)(O)O` [sphingosine-1-phosphate, Sphingosine-1-phosphate], the “cytotoxic dose TNFα-induced BAD mitochondrial translocation” value in data set [3] is recorded as “significantly reduced”. Also, the “cytotoxic dose TNFα-induced apoptosis” value in data set [4] is “significantly reduced”. As for `CN1CCN(CCOc2cc(OC3CCOCC3)c3c(Nc4c(Cl)ccc5c4OCO5)ncnc3c2)CC1` [saracatinib], in data set [2], the “cytotoxic dose TNFα-induced BAD translocation to mitochondria” value is given as “inhibit”. Regarding `C=C1[C@@H](C)[C@H]2[C@H](Cc3ccccc3)NC(=O)[C@]23[C@H](OC(C)=O)/C=C/[C@@](C)(O)C(=O)[C@@H](C)C/C=C/[C@H]3[C@@H]1O` [cytochalasin D, Cytochalasin D], the “BAD mitochondrial translocation with non-cytotoxic dose TNFα” value in data set [3] was “induced”. Further, in data set [4], the “apoptosis with non-cytotoxic dose TNFα” value is reported as “induced”.
